Values joined by “and” are separate entries in the source; they are usually repeats but may differ in a detail not shown here. Identical values can stand only once. Like-named read-outs stand apart in the source and are kept apart here.
Assays:
HIV-1 = conditions: 1 Minute Irradiation, HIV Starting Titer Approximately 5.4 Logs (Table 11)
Protocol: Pathogen inactivation efficiency of several compounds described herein was evaluated by examining the ability of the compounds to inactivate cell-free virus (HIV). Inactivation of cell-free HIV was performed as follows.
As in the R17 assay, small aliquots of the compounds listed in TABLES 10 and 11, below, at the concentrations listed in the table, were added to stock HIV-1 to a total of 0.5 mL. The stock HIV (10^5 - 10^7 plaque forming units/mL) was in DMEM/15% FBS. […] Controls included HIV-I stock only, HIV-1 plus UVA only, and HIV-I plus the highest concentration of each psoralen tested, with no UVA. Post irradiation. all samples were store frozen at -70° C until assayed for infectivity by a microtiter plaque assay. Aliquots for measurement of residual HIV infectivity in the samples treated with a compound of the present invention were withdrawn and cultured.
Residual HIV infectivity was assayed using an MT-2 infectivity assay. […] The assay medium was 85% DMEM (with a high glucose concentration) containing 100 µg of streptomycin, 100 U of penicillin, 50 µg of gentamicin, and 1 µg of amphotericin B per mL, 15% FBS and 2 µg of Polybrene (Sigma Chemical Co., St. Louis, Mo.) per mL. Test and control samples from the inactivation procedure were diluted in 50% assay medium and 50% normal human pooled plasma. The samples were serially diluted directly in 96-well plates (Coming Glass Works, Coming, N.Y.). The plates were mixed on an oscillatory shaker for 30 seconds and incubated at 37°C in a 5% CO2 atmosphere for 1 to 18 hours. […] After an additional 1 hour of incubation at 37°C in 5% CO2, 0.075 mL of assay medium containing 1.6% SeaPlaque agarose (FMC Bioproducts, Rockland, Maine) and prewarmed to 38.5°C was added to each well. The plates were kept at 37°C for a few minutes until several plates had accumulated and then centrifuged in plate carriers at 600 x g for 20 minutes in a centrifuge precooled to 10°C. In the centrifuge, cell monolayers formed prior to gelling of the agarose layer. The plates were incubated for 5 days at 37°C in 5% CO2 and stained by the addition of 0.05 mL of 50 µg/mL propidium iodide (Sigma Chemical Co.) in phosphate-buffered saline (pH 7.4) to each well. After 24 to 48 hours, the red fluorescence-stained microplaques were visualized by placing the plates on an 8,000 µW/cm^2 304 nm UV light box (Fotodyne, Inc., New Berlin, Wis.). The plaques were counted at a magnification of x20 to x25 through a stereomicroscope.

Male Balb/c mice = test system: Male Balb/c mice
Protocol: Male Balb/c mice were then injected with 0.1 ml of a compound solution via the tail vein. At least 3 mice were injected per dose level Saline only was used as a negative control. For a positive control, cyclophosphamide (cycloPP) was administered at a dose of 30 mg/kg. In the experimental group, the injections were repeated once per day for four days. In the positive control group, the sample was administered only once, on day three. On day 5, several microliters of blood were withdrawn from each subject and smeared on a glass slide. Cells were fixed in absolute methanol and stored in a slide rack.
For analysis, cells were stained with acridine orange and visualized under a fluorescence microscope by counting: (i) the number of reticulocytes per 5000 erythrocytes; and (ii) the number of micronucleated reticulocytes per 1000 reticulocytes. Reticulocytes were distinguished by their red fluorescence due to the presence of RNA. Micronuclei were distinguished by their green fluorescence due to the presence of DNA. The percentage of reticulocytes (%PCE) was then calculated. A decrease in the frequency of erythrocytes, represented by an increase in the percentage of reticulocytes, is an indication of bone marrow toxicity. The percentage of reticulocytes with micronuclei (%PCE with MN) was also calculated. An increase in %PCE with MN is a measure of elastogenicity.
After initial results were determined, the experiment was repeated using increased dose levels, until: (i) Micronucleus formation was seen; or (ii). Bone marrow toxicity was observed; or (iii) The lethal dose was reached; or (iv) A dose of 5 g/kg was administered.

R17 = assay: r-17 bacteriophage assay: R17 treated with compound and UVA, remaining titer by plaque count on Hfr 3000 bacteria; type: cell-based; conditions: constant concentration, varying doses of UV light 1.0-3.0 J/cm^2 (FIGS. 11-17)
Protocol: In the r-17 assay, the bacteriophage was placed in a solution with each compound tested and was then irradiated. The ability of the phage to subsequently infect bacteria and inhibit their growth was measured. The bacteriophage was selected for its relatively accessible nucleic acid such that the culture growth inhibition would accurately reflect nucleic acid damage by the test compounds. The bacteriophage assay for nucleic acid binding to test compounds offers a safe and inexpensive procedure to identify compounds likely to display efficient pathogen inactivation. Previous experiments support that the r-17 assay accurately measures HIV-1 sensitivity to similar compounds. […] Modified Eagles Medium (DMEM) to a final phage concentration of 10^9/mL. An aliquot (0.5 mL) was transferred to a 1.5 mL snap-top polyethylene tube. […] Louis, MO). The tubes were placed in a light device as described in EXAMPLE 1 and irradiated for between 1 and 10 minutes. […] To make the dilutions. a 0.100 mL aliquot of the irradiated solution of phage and test compound was added to the first dilution tube of 0.4 mL of media then 0.020 mL of this solution was added to the second tube of 0.5 mL medium (1:25). […] After the top agar hardened, the plates were incubated at 37 °C overnight. The plaque forming units were then counted the following morning and the titer of the phage remaining after phototreatment was calculated based on the dilution factors. The following controls were run: the "phage only" in which phage was not treated with test compound and not irradiated (listed as "starting titer" in the tables below); the "UV only" in which the phage was irradiated in the absence of test compound; and the "dark" control in which the phage/test compound solution was not irradiated before it was diluted and plated. Compounds described herein were also tested at a constant concentration for varying doses of UV light. […] The compound tested was added at the desired concentration and the samples were vortexed. […] Between each 1.0 J/cm^2 intervals, 100µL was removed from each sample and placed in the first corresponding dilution tube, then five sequential dilutions were performed for each compound tested, at all 3 irradiation doses, as described above in this example. […] The contents of each tube was poured into its own LB plate and the plates were incubated overnight at 37 °C. Plaques were counted by visual inspection the following morning.

[1] = positive control, Dose 30 mg/kg administered only once, on day three, one value per experiment, 30 mg/kg

For `Cc1cc(=O)oc2c(C)c3oc(CNCCCCN)c(C)c3cc12` [Compound 17, 5'-(6-amino-2-aza)hexyl-4,4',8-trimethylpsoralen], the “HIV Log Kill” value (HIV-1; 16 µM) was 1.2, the “HIV Log Kill” value (HIV-1; 32 µM) was 2.9 and the “HIV Log Kill” value (HIV-1; 64 µM) was 3.4. The “bone marrow toxicity or micronucleus formation” value (Male Balb/c mice; experiment repeated using increased dose levels) was “the acutely lethal dose was reached before there were any signs of bone marrow toxicity or micronucleus formation” and the “efficiency at inactivating R17 compared with AMT” value (R17) was “more efficient at inactivating R17 than was AMT”.

In the case of `O=P1(N(CCCl)CCCl)NCCCO1` (stereo not shown) [CycloPP, cyclophosphamide, reference compound], the “PCE + MN (%)” value (Male Balb/c mice; [1]) is reported as 1.98 ± 0.40% and 1.76 ± 0.64% and the “PCE/RBC (%)” value (Male Balb/c mice; [1]) is reported as 1.39 ± 0.41% and 1.65 ± 0.64% and 0.99 ±0.33%.

Source: patent EP0840781B1, “METHODS AND DEVICES FOR THE REMOVAL OF PSORALENS FROM BLOOD PRODUCTS” (Cerus Corporation, priority 1995, dated 1996)
